Laboratory results reported in ChEMBL document CHEMBL2375269, “Triazolothiadiazoles and triazolothiadiazines--biologically attractive scaffolds” (Eur J Med Chem, 2013).
Converted amounts (≈) assume the structure as drawn.

Legend:
[1] = system: Radical scavenging activity; assay: Antioxidant activity of the compound assessed as DPPH radical scavenging activity after 30 mins by spectrophotometry; type: functional
[2] = Inhibition of acetylcholine esterase (unknown origin) using acetylthiocholine as substrate incubated for 15 mins prior to substrate addition measured after 5 mins by spectrophotometry; design: species or system Homo sapiens
[3] = Inhibition of urease (unknown origin) assessed as ammonia synthesis after 30 mins by microplate reader analysis; design: species or system Homo sapiens
[4] = target: Intestinal-type alkaline phosphatase (Bos taurus, UniProt P19111); assay: Inhibition of calf intestinal alkaline phosphatase using p-NPP as substrate incubated for 10 mins prior to substrate addition measured after 30 mins by spectrophotometry
Intestinal-type alkaline phosphatase, sequence (P19111 whole entry): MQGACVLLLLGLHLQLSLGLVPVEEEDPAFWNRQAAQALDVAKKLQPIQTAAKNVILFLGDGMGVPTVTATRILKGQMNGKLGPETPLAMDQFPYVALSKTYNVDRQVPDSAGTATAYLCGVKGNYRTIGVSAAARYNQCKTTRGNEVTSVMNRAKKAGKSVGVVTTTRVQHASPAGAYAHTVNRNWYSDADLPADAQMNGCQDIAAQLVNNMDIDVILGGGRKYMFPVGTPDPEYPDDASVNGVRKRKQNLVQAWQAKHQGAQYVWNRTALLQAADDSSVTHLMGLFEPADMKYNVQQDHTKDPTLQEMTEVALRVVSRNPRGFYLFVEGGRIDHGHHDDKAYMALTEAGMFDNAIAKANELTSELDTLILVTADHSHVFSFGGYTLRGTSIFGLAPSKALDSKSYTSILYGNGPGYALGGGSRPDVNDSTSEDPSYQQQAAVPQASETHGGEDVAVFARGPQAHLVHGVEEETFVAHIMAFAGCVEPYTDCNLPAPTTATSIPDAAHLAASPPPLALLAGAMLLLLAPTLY

Bacillus subtilis = assay: Antibacterial activity against Bacillus subtilis after 24 hrs by serial tube dilution method; type: functional
Shigella flexneri = assay: Antibacterial activity against Shigella flexneri after 24 hrs by serial tube dilution method; type: functional
Escherichia coli = assay: Antibacterial activity against Escherichia coli after 24 hrs by serial tube dilution method; type: functional
Staphylococcus aureus = assay: Antibacterial activity against Staphylococcus aureus after 24 hrs by serial tube dilution method; type: functional

SMILES: Fc1cccc(Cc2nnc3sc(-c4ccoc4)nn23)c1
- IC50 [1]: 31500 nM
- IC50 [2]: 1780 nM

SMILES: COc1ccc(-c2nnc3sc(-c4ccoc4)nn23)cc1
- IC50 [2]: 1780 nM
- IC50 [3]: 764 nM
- Ki [3]: 450 nM

SMILES: Brc1ccc(-c2nnc3sc(-c4ccoc4)nn23)cc1
- IC50 [4]: 61 nM
- IC50 [2]: 1780 nM

SMILES: Brc1cccc(-c2nnc3sc(-c4ccoc4)nn23)c1
- IC50 [2]: 344 nM

SMILES: Fc1cnc(-c2nn3c(-c4ccccc4Cl)nnc3s2)c(F)c1
- MIC (Bacillus subtilis): 0.156 µg/mL (≈ 0.446 µM)
- MIC (Shigella flexneri): 0.156 µg/mL (≈ 0.446 µM)
- MIC (Escherichia coli): 0.156 µg/mL (≈ 0.446 µM)
- MIC (Staphylococcus aureus): 0.156 µg/mL (≈ 0.446 µM)

SMILES: Clc1ccccc1-c1nnc2sc(-c3ccoc3)nn12
- IC50 [2]: 1780 nM

SMILES: Clc1ccc(-c2nnc3sc(-c4ccoc4)nn23)cc1
- IC50 [2]: 1780 nM

SMILES: Fc1ccccc1Cc1nnc2sc(-c3ccoc3)nn12
- IC50 [2]: 1780 nM

SMILES: Fc1ccc(Cc2nnc3sc(-c4ccoc4)nn23)cc1
- IC50 [2]: 1780 nM

SMILES: COc1ccccc1-c1nnc2sc(-c3ccoc3)nn12
- IC50 [2]: 1780 nM

SMILES: COc1cccc(-c2nnc3sc(-c4ccoc4)nn23)c1
- IC50 [2]: 1780 nM

SMILES: COc1cccc(Cc2nnc3sc(-c4ccc(Cl)cc4)nn23)c1
- IC50 [1]: 9040 nM

SMILES: CCCOC(=O)c1cc(O)c(O)c(O)c1 [PROPYL GALLATE]
- IC50 [1]: 40800 nM
